Values quoted from earlier work, collected in patent US11160882B2, “Indirect chromoendoscopy with an oral indigo carmine base preparation” (priority 2014, dated 2021).

Tests used:
[1] = rat, oral (Lethco et al., 1966)
[2] = humans (Oravisto K., 1957)
colon [3] = settings: 100 mg oral powder before the colonic prep
colon [4] = settings: 100 mg oral capsule before the colonic prep

dye taken orally that was absorbed [1]: 3%
clearance of absorbed food colorant from circulation [2]: cleared very rapidly
daily intake certified by the FDA (use as a food colorant): up to 2 mg/kg
SMILES: O=C1/C(=C2\Nc3ccc(S(=O)(=O)[O-])cc3C2=O)Nc2ccc(S(=O)(=O)[O-])cc21.[Na+].[Na+] [indigo carmine]
toxicity from oral administration (oral administration): no reports of toxicity
side effects (colon [3]): No side effects were observed
cases with good effect (staining), left colon (colon [3]; left colon): 50%
cases with good effect (staining), right colon (colon [3]; right colon): 80%
cases in which staining of the entire colon was ineffective (colon [4]): over 90%
